From the supplement of paper PMC10307832

Assays:
Assay in all cases: relative viability (nuclei count vs DMSO), 5 days (fraction); higher = more cells survive
Venetoclax = compound: CC1(C)CCC(CN2CCN(c3ccc(C(=O)NS(=O)(=O)c4ccc(NCC5CCOCC5)c([N+](=O)[O-])c4)c(Oc4cnc5[nH]ccc5c4)c3)CC2)=C(c2ccc(Cl)cc2)C1 [Venetoclax]
In short: (§1)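 Five library-drug doses, separated by factors of √10, were pinned into 1536-well plates holding lung cancer cell lines after an overnight stay at 37 °C. Cells were fixed, permeabilised and Hoechst-stained in one step after 5 days without medium change, then imaged at 4×. Viability compares treated-well with vehicle-well nuclei, counted in MetaXpress, as a median across plates. Passing plates had control CV below 25% and at least one doubling.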

Selumetinib = compound: Cn1cnc2c(F)c(Nc3ccc(Br)cc3Cl)c(C(=O)NOCCO)cc21 [Selumetinib]
In short: as §1

Venetoclax + Navitoclax = compound: CC1(C)CCC(CN2CCN(c3ccc(C(=O)NS(=O)(=O)c4ccc(NCC5CCOCC5)c([N+](=O)[O-])c4)c(Oc4cnc5[nH]ccc5c4)c3)CC2)=C(c2ccc(Cl)cc2)C1 [Venetoclax] + CC1(C)CCC(c2ccc(Cl)cc2)=C(CN2CCN(c3ccc(C(=O)NS(=O)(=O)c4ccc(N[C@H](CCN5CCOCC5)CSc5ccccc5)c(S(=O)(=O)C(F)(F)F)c4)cc3)CC2)C1 [Navitoclax] (partner 0.5 µM)
In short: (§2)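 Dosing by pin tool came one day after lung cancer cell lines were seeded in 1536-well plates, using either one drug or a fixed anchor-drug dose plus five library-drug doses (not always all listed) in √10 steps. After 5 days, nuclei were counted on 4× images. Relative viability is treated-well nuclei count divided by vehicle-well nuclei count, and values are medians of duplicate plates.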

Selumetinib + Phenformin = compound: Cn1cnc2c(F)c(Nc3ccc(Br)cc3Cl)c(C(=O)NOCCO)cc21 [Selumetinib] + N=C(N)NC(=N)NCCc1ccccc1 [Phenformin] (partner 250 µM)
In short: as §2

Cell Line | relative viability (Venetoclax; 0.01 µM) | relative viability (Venetoclax; 0.03162 µM) | relative viability (Venetoclax; 0.1 µM) | relative viability (Venetoclax; 0.3162 µM) | relative viability (Venetoclax; 1 µM) | relative viability (Selumetinib; 0.02 µM) | relative viability (Selumetinib; 0.06325 µM) | relative viability (Selumetinib; 0.2 µM) | relative viability (Selumetinib; 0.6325 µM) | relative viability (Venetoclax + Navitoclax; first compound 0.01 µM) | relative viability (Venetoclax + Navitoclax; first compound 0.03162 µM) | relative viability (Venetoclax + Navitoclax; first compound 0.1 µM) | relative viability (Venetoclax + Navitoclax; first compound 0.3162 µM) | relative viability (Venetoclax + Navitoclax; first compound 1 µM) | relative viability (Selumetinib + Phenformin; first compound 0.02 µM) | relative viability (Selumetinib + Phenformin; first compound 0.06325 µM) | relative viability (Selumetinib + Phenformin; first compound 0.2 µM) | relative viability (Selumetinib + Phenformin; first compound 0.6325 µM)
NCI-H2170 | 0.863 | 0.944 | 0.904 | 0.91 | 0.877 | 0.982 | 0.97 | 0.896 | 0.937 | 0.746 | 0.688 | 0.521 | 0.509 | 0.531 | 0.408 | 0.395 | 0.386 | 0.326
NCI-H1437 | 0.971 | 1.04 | 0.989 | 0.957 | 0.949 | 0.911 | 0.817 | 0.703 | 0.53 | 1.07 | 1.09 | 1.04 | 1.04 | 0.977 | 0.269 | 0.232 | 0.216 | 0.243
NCI-H3122 | 1.06 | 1 | 0.967 | 0.962 | 0.983 | 0.846 | 0.75 | 0.697 | 0.67 | 1.11 | 1.03 | 1.03 | 1.01 | 1.01 | 0.386 | 0.305 | 0.287 | 0.286
NCI-H2023 | 0.932 | 1.05 | 1.05 | 0.953 | 0.859 | 0.987 | 0.841 | 0.862 | 0.758 | 0.984 | 0.987 | 0.924 | 0.96 | 0.86 | 0.373 | 0.399 | 0.381 | 0.341
NCI-H460 | 0.98 | 0.965 | 0.941 | 0.989 | 0.923 | 0.963 | 0.801 | 0.823 | 0.545 | 0.996 | 1.16 | 1.1 | 1.07 | 1.09 | 0.479 | 0.397 | 0.309 | 0.176
PC-3 [JPC-3] | 0.995 | 1.07 | 1.06 | 1.04 | 0.917 | 1.01 | 1 | 0.869 | 0.787 | 0.832 | 0.785 | 0.78 | 0.829 | 0.744 | 0.446 | 0.489 | 0.473 | 0.414
HCC-15 | 0.937 | 1.07 | 0.929 | 0.902 | 0.909 | 0.844 | 0.64 | 0.487 | 0.389 | 0.674 | 0.707 | 0.635 | 0.621 | 0.588 | 0.37 | 0.284 | 0.231 | 0.185
NCI-H2228 | 0.942 | 1.03 | 0.86 | 0.891 | 0.965 | 0.898 | 0.958 | 0.943 | 0.797 | 0.932 | 1.03 | 0.927 | 0.836 | 0.999 | 0.254 | 0.284 | 0.219 | 0.21
NCI-H1650 | 0.903 | 1.02 | 0.815 | 1.05 | 0.768 | 0.857 | 0.796 | 0.837 | 0.795 | 1.14 | 1.3 |  | 1.02 | 0.968 | 0.424 | 0.371 | 0.444 | 0.35
NCI-H1975 | 0.99 | 0.935 | 0.889 | 0.939 | 0.884 | 0.952 | 0.958 | 0.939 | 0.663 | 1.15 | 1.15 | 1.05 | 1.21 | 1.11 | 0.426 | 0.378 | 0.379 | 0.34
ChaGo-K-1 | 1.06 | 1.16 | 0.888 | 1.01 | 0.99 | 0.999 | 0.939 | 0.946 | 0.929 | 1.02 | 1.24 |  | 1.09 | 1.06 | 0.484 | 0.555 | 0.465 | 0.461
NCI-H727 | 1.17 | 0.993 | 0.848 | 0.953 | 0.827 | 0.5 | 0.418 | 0.352 | 0.385 | 0.375 | 0.462 | 0.36 | 0.323 | 0.516 | 0.455 | 0.381 | 0.375 | 0.355
COR-L23 | 0.979 | 1.03 | 0.967 | 0.999 | 0.911 | 1.09 | 1.03 | 1.07 | 0.99 | 0.996 | 1.07 | 0.947 | 0.947 | 0.86 | 0.464 | 0.469 | 0.519 | 0.463
COR-L 105 | 0.946 | 0.917 | 0.834 | 1.02 | 0.873 | 0.713 | 0.572 | 0.672 | 0.55 | 0.743 | 0.755 | 0.782 | 0.794 | 0.748 | 0.355 | 0.321 | 0.331 | 0.297
LK-2 | 0.947 | 1.11 | 0.929 | 0.938 | 1.02 | 1.08 | 1.05 | 0.88 | 1.04 | 0.809 | 0.945 | 0.763 | 0.816 | 0.845 | 0.561 | 0.576 | 0.539 | 0.477
201T | 0.975 | 0.989 | 0.982 | 0.984 | 0.982 | 0.94 | 0.901 | 0.91 | 0.888 | 1.17 | 1.24 | 1.27 | 1.19 | 1.21 | 0.507 | 0.406 | 0.455 | 0.421
HCC-78 | 1.1 | 1.21 | 1.01 | 0.959 | 0.942 | 0.924 | 0.853 | 0.802 | 0.91 | 0.97 | 0.895 | 0.688 | 0.755 | 0.84 | 0.667 | 0.74 | 0.601 | 0.677
